The values that follow come from BindingDB's records for patent WO2022093820 (GENENTECH, INC., 2022).

Phosphatidylinositol 3-kinase catalytic subunit type 3, sequence (Q8NEB9 whole entry): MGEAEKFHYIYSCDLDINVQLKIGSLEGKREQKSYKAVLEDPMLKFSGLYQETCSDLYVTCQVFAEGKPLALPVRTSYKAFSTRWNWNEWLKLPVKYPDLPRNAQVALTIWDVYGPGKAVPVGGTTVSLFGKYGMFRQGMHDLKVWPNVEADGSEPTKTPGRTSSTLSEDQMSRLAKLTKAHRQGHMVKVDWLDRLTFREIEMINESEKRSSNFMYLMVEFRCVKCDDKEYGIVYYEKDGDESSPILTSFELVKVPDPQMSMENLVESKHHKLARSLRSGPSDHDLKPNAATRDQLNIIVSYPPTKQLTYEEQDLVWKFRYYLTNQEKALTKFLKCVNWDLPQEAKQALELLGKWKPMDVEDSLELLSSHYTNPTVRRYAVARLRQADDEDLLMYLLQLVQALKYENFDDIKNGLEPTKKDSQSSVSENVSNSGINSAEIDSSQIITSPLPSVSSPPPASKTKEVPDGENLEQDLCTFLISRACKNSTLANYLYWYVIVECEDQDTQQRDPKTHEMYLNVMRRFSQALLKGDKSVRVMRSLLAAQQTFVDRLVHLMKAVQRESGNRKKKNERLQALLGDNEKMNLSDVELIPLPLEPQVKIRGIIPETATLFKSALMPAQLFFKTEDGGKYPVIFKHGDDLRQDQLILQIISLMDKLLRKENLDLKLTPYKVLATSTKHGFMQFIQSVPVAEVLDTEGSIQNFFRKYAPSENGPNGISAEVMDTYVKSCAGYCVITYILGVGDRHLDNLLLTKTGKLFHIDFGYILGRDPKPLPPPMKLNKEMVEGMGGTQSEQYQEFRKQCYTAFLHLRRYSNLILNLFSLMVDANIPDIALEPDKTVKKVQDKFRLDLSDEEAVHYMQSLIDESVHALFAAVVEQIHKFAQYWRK

This assay has as its target Phosphatidylinositol 3-kinase catalytic subunit type 3 (Homo sapiens, UniProt Q8NEB9). The assay can be described thus: VPS34 ADP-Glo kinase assay. As to the method:
Experimental compound in DMSO was dispensed to a 384-well microplate via acoustic dispenser at 50 nl per well. […] Assay buffer conditions were as follows: 50 mM HEPES, pH 7.5, 3 mM MnCl2, 0.01% BSA, 0.01% Brij 35, 1 mM TCEP. The 5 µl reaction was incubated for 90 minutes at room temperature, and then quenched with equal volume of ADP-Glo Reagent (5 µl; Promega). Quenched reaction was incubated for 60 min, followed by addition of an equal volume of Kinase Detection Reagent (10 µl; Promega). Luminescence signal was detected on an Envision (Perkin Elmer).
In the case of `C[C@@H]1COCCN1c1cc2n(n1)[C@H](C1(C)CC1)CNC2=O` [WO2022093820, Compound 11], the IC50 stood at 56 nM. `C[C@@H]1COCCN1c1cc2n(n1)[C@@H](C1(C)CC1)CNC2=O` [WO2022093820, Compound 12] displayed an IC50 of 3350 nM. The molecule `C[C@@H]1COCCN1c1cc2n(n1)[C@H](C(F)(F)C(F)(F)F)CNC2=O` [WO2022093820, Compound 15] displayed an IC50 of 52 nM. Turning to `C[C@@H]1COCCN1c1cc2n(n1)[C@@H](C(F)(F)C(F)(F)F)CNC2=O` [WO2022093820, Compound 16], the IC50 was found to be 50000 nM. Take `C[C@@H]1COCCN1c1cc2n(n1)[C@](C)(C1CC1)CNC2=O` [WO2022093820, Compound 23]: the IC50 stood at 41 nM. As for `C[C@@H]1COCCN1c1cc2n(n1)[C@@](C)(C1CC1)CNC2=O` [WO2022093820, Compound 24], the figure is 1340 nM; as for `CC(C)[C@]1(C)CNC(=O)c2cc(N3CCOC[C@H]3C)nn21` [WO2022093820, Compound 25], 90 nM; as for `CC(C)[C@@]1(C)CNC(=O)c2cc(N3CCOC[C@H]3C)nn21` [WO2022093820, Compound 26], 2170 nM.

The molecule `CC[C@@]1(C2CC2)CNC(=O)c2cc(N3CCOC[C@H]3C)nn21` [WO2022093820, Compound 27] displayed an IC50 of 32 nM.

Turning to `CC[C@]1(C2CC2)CNC(=O)c2cc(N3CCOC[C@H]3C)nn21` [WO2022093820, Compound 28], inhibition was half-maximal at 1300 nM (IC50). On to `C[C@@H]1COCCN1c1cc2n(n1)[C@](C)(C1CC1)C1(CC1)NC2=O` [WO2022093820, Compound 29], for which the IC50 worked out at 27 nM.

On to `C[C@@H]1COCCN1c1cc2n(n1)[C@@](C)(C1CC1)C1(CC1)NC2=O` [WO2022093820, Compound 30], for which the IC50 came to 1750 nM.

`CC(C)[C@H]1n2nc(N3CCOC[C@H]3C)cc2C(=O)NC12CC2` [WO2022093820, Compound 33]: it took 24 nM to reach half-maximal inhibition (IC50). Turning to `CC(C)[C@@H]1n2nc(N3CCOC[C@H]3C)cc2C(=O)NC12CC2` [WO2022093820, Compound 34], 21000 nM corresponded to half-maximal inhibition (IC50).

`C[C@@H]1COCCN1c1cc2n(n1)[C@@H]1CCC(C)(C)[C@@H]1NC2=O` [WO2022093820, Compound 41] gave an IC50 of 51 nM. Take `C[C@@H]1COCCN1c1cc2n(n1)[C@](C)(C1CCC1)CNC2=O` [WO2022093820, Compound 44]: the IC50 amounted to 4000 nM. As for `C[C@@H]1COCCN1c1cc2n(n1)[C@@](C)(C1CCC1)CNC2=O` [WO2022093820, Compound 45], the IC50 was found to be 260 nM. `CC[C@@H]1CNC(=O)c2cc(N3CCOC[C@H]3C)nn21` [WO2022093820, Compound 46] returned an IC50 of 12800 nM. Against the preceding molecule, the IC50 is about 49-fold higher. Molecule `CC[C@H]1CNC(=O)c2cc(N3CCOC[C@H]3C)nn21` [WO2022093820, Compound 47] yielded an IC50 of 747 nM. `C[C@@H]1COCCN1c1cc2n(n1)[C@H](C1(c3ccccc3)CC1)CNC2=O` [WO2022093820, Compound 48] registered an IC50 of 100 nM. Turning to `C[C@@H]1COCCN1c1cc2n(n1)[C@@H](C1(c3ccccc3)CC1)CNC2=O` [WO2022093820, Compound 49], the IC50 came to 35000 nM. This IC50 is about 350-fold higher than that of the molecule before. `CC(C)C1(CO)CNC(=O)c2cc(N3CCOC[C@H]3C)nn21` (stereo partly specified) [WO2022093820, Compound 50] displayed an IC50 of 847 nM. As for `C[C@@H]1COCCN1c1cc2n(n1)C[C@H](CC(F)(F)F)NC2=O` [WO2022093820, Compound 51], half-maximal inhibition (IC50) required 682 nM. For the molecule `C[C@@H]1COCCN1c1cc2n(n1)C[C@@H](CC(F)(F)F)NC2=O` [WO2022093820, Compound 52], the IC50 was found to be 24700 nM. In turn, `COC[C@@]1(C(C)C)CNC(=O)c2cc(N3CCOC[C@H]3C)nn21` [WO2022093820, Compound 53] showed an IC50 of 36200 nM.

Turning to `COC[C@]1(C(C)C)CNC(=O)c2cc(N3CCOC[C@H]3C)nn21` [WO2022093820, Compound 54], the IC50 was determined as 563 nM. Consider `C[C@H](c1ccccc1)C1CNC(=O)c2cc(N3CCOC[C@H]3C)nn21` (stereo partly specified) [WO2022093820, Compound 55], for which the IC50 worked out at 50000 nM. In turn, `C[C@@H]1COCCN1c1cc2n(n1)C([C@@H](C)c1ccccc1)CNC2=O` (stereo partly specified) [WO2022093820, Compound 56] registered an IC50 of 119 nM. Compared with the last molecule, the IC50 is about 420-fold lower.

Turning to `C[C@H](c1ccccc1)[C@@H]1CNC(=O)c2cc(N3CCOC[C@H]3C)nn21` [WO2022093820, Compound 57], the midpoint of inhibition, the IC50, lay at 50000 nM. Turning to `C[C@@H]1COCCN1c1cc2n(n1)[C@H]([C@@H](C)c1ccccc1)CNC2=O` [WO2022093820, Compound 58], half-maximal inhibition (IC50) required 388 nM.

`C[C@@H]1COCCN1c1cc2n(n1)[C@H](CC(F)(F)F)CNC2=O` [WO2022093820, Compound 59] yielded an IC50 of 36000 nM. This IC50 is about 93-fold higher than that of the molecule before. With `C[C@@H]1COCCN1c1cc2n(n1)[C@@H](CC(F)(F)F)CNC2=O` [WO2022093820, Compound 60], half-maximal inhibition (IC50) was put at 429 nM. In turn, `CC(C)C[C@@H]1CNC(=O)c2cc(N3CCOC[C@H]3C)nn21` [WO2022093820, Compound 61] came in with an IC50 of 12800 nM. Compared with the last molecule, the IC50 is about 30-fold higher.

`CC(C)C[C@H]1CNC(=O)c2cc(N3CCOC[C@H]3C)nn21` [WO2022093820, Compound 62]: the IC50 stood at 739 nM. As for `CC[C@@H](C)C[C@H]1CNC(=O)c2cc(N3CCOC[C@H]3C)nn21` [WO2022093820, Compound 64], the IC50 worked out at 33600 nM. The molecule `CC[C@H](C)C[C@@H]1CNC(=O)c2cc(N3CCOC[C@H]3C)nn21` [WO2022093820, Compound 65] showed an IC50 of 109 nM.

Molecule `C[C@H](CO)[C@@H]1CNC(=O)c2cc(N3CCOC[C@H]3C)nn21` [WO2022093820, Compound 67] gave an IC50 of 32400 nM. Turning to `C[C@@H]1COCCN1c1cc2n(n1)[C@H]([C@@H](C)CO)CNC2=O` [WO2022093820, Compound 68], it took 27300 nM to reach half-maximal inhibition (IC50). This IC50 and that of the molecule before are within 1.5-fold of each other. In the case of `C[C@@H]1COCCN1c1cc2n(n1)C([C@@H](C)CO)CNC2=O` (stereo partly specified) [WO2022093820, Compound 69] it was 784 nM; in that of `C[C@H](CO)C1CNC(=O)c2cc(N3CCOC[C@H]3C)nn21` (stereo partly specified) [WO2022093820, Compound 70], 532 nM; in that of `C[C@@H]1COCCN1c1cc2n(n1)C(C)(C)CNC2=O` [WO2022093820, Compound 71], 919 nM.
